Among the data in ChEMBL document CHEMBL5247578, “Effective synthesis of benzimidazoles-imidazo[1,2-a]pyrazine conjugates: A comparative study of mono-and bis-benzimidazoles for antitumor activity” (Eur J Med Chem, 2019) are growth and CC50 values, retold here.

For one assay, the system named is K562. As to the kind of experiment: Antiproliferative activity against human K562 cells assessed as cell growth at 0.0001 M incubated for 48 hrs by SRB assay relative to control. As to conditions: read-out: Activity. It is filed as functional.
The test system of another assay is SK-MEL-5. As to the kind of experiment: Antiproliferative activity against human SK-MEL-5 cells assessed as cell growth inhibition by measuring lethal concentration incubated for 48 hrs by sulforhodamine B assay. It is filed as functional. As to conditions: read-out: LC50 (the source's name). (In SRB staining, fixed cells bind dye roughly in proportion to their protein.)

Where only a bound is given, the exact number is not on record here.

Take `COc1ccc(-c2cn3ccnc3c(-c3ccc4ncn(C5CCCCC5)c4c3)n2)cc1`: in the assay with K562, the growth at 100 µM turned out to be 11%. The CC50 in the assay on SK-MEL-5 was above 100 µM.
